Consider six compounds from US20230364089A1, “COMPOUNDS AND COMPOSITIONS FOR THE TREATMENT OR PREVENTION OF PATHOLOGICAL CONDITIONS ASSOCIATED WITH EXCESS FIBRIN DEPOSITION AND/OR THROMBUS FORMATION” (Cereno Scientific AB, priority 2016, published 2023).

For data set [1] the following is noted: cited from earlier work.
The conditions of data set [2]: once daily (in healthy volunteers); cited from earlier work.
A short description of data set [3]: Example 3 clinical outcome study in high-risk patients: recurrent atherothrombotic events. The format is in vivo, human. The following applies: 400 mg valproic acid once daily at 11 pm, long-term, expected. As for the experimental part: A clinical outcome study is performed in high-risk patients who have experienced a recent major atherothrombotic cardiovascular event (myocardial infarction or TIA/ischemic stroke) to investigate the preventive effect of valproic acid treatment on the risk for recurrent events. The annual risk for a recurrent atherothrombotic event in the investigated population is estimated to approximately 7%. […] The event rate is monitored by Kaplan-Meyer statistics. The primary efficacy endpoint is the composite measure of either mortality, or non-fatal myocardial infarction or ischemic stroke. The study is event-driven to a total of 180 events. […] Thus, the study is expected to confirm the clinical efficacy and feasibility of using valproic acid for secondary prevention of cardiovascular disease.

The subject of data set [4] is cultured endothelial cells. The data set is described as follows: PAI-1 mRNA / production in cultured endothelial cells after VPA treatment. The settings on record: no decrease of PAI-1 mRNA levels, slight but significant increase. The format is cell-based.
Data set [5] deals with PAI-1. The data set is described as follows: Plasma PAI-1 in in vivo model in mouse. The settings on record: in vivo model in mouse (unpublished data).
Data set [6] relates to PAI-1. The data set is described as follows: Proof-of-concept study 2: plasma PAI-1 before and after VPA in patients with a history of myocardial infarction. It counts as in vivo, human. The settings on record: midmorning; for reduction in circulating plasma PAI-1 levels: 16 male patients with history of myocardial infarction, valproic acid 500 mg (Ergenyl Retard) twice daily for 28 days on top of ordinary prescription, p=0.01. As for the experimental part: (§1) The effects of VPA on PAI-1 were analysed in two different proof-of-concept studies in healthy subjects as well as in patients with manifest atherosclerotic disease. […] PAI-1 plasma levels were measured in the morning at the first day of the study as well as at the end of the treatment period with VPA (see example 2 for details on the PAI-1 analysis).
In the second study, 16 non-smoking white male patients, aged 50-80 years with a history of a myocardial infarction were included. On top of their ordinary prescription (beta-blocker, ACE-inhibitor, statin, aspirin) they were treated with valproic acid 500 mg (Ergenyl Retard, Sanofi), twice daily during 28 days.

Data set [7] concerns PAI-1. Put plainly: Proof-of-concept study 1: plasma PAI-1 before and after VPA in healthy subjects. It counts as in vivo, human. As to the method: as §1
In the first study, 10 healthy non-smoking white male subjects (with mean BMI of approximately 26), aged 50-70 years were included and treated with valproic acid 500 mg (Ergenyl Retard, Sanofi) twice daily during 14 days.

For data set [8], the system named is PAI-1. The settings on record: in vivo model in pig (Svennerholm et al., PLoS One 2014); cited from earlier work.
Data set [9] relates to PAI-1. The data set is described as follows: Example 2 intermediate endpoint study in patients with TIA/minor stroke: plasma PAI-1 and plasma valproic acid.
Description: An intermediate endpoint proof-of-concept study is performed in patients with TIA/minor stroke investigated before and after treatment with Valproic acid. Valproic acid is administrated as an enteric-coated tablet with delayed absorption.
The study comprises 20 patients with TIA/minor stroke. Patients are investigated before and after oral treatment with 400 mg valproic acid once time daily at 11 pm for 2 weeks. Plasma PAI-1 levels and plasma concentrations of valproic acid is followed daily during the study period at the following time-points: 3 am, 6 am, 10 am, 16 pm, 22 pm PAI-1 levels are measured by commercially available ELISA-kits (Coaliza PAI-1, ChromogenixAB) and the plasma concentration of valproic acid an metabolites thereof is analyzed according to clinical routine at the Sahlgrenska University laboratory, Gothenburg, Sweden.

Read-outs that look alike come from different tables or passages of the source.

With `O=C(/C=C/c1cccc(S(=O)(=O)Nc2ccccc2)c1)NO` [Belinostat, (2E)-3-[3-(anilinosulfonyl)phenyl]-N-hydroxy-acrylamide], in data set [1] (bidaily), the MTD was 1000 mg bidaily.

With `CCN(CC)Cc1ccc2cc(COC(=O)Nc3ccc(C(=O)NO)cc3)ccc2c1.Cl` [Givinostat, {6-[(diethylamino)methyl]-naphthalen-2-yl}methyl[4-(hydroxycarbamoyl)phenyl]carbamate], in [2], the MTD is 200 mg once daily (in healthy volunteers).

Turning to `Cc1[nH]c2ccccc2c1CCNCc1ccc(/C=C/C(=O)NO)cc1` [Panobinostat, (E)-N-hydroxy-3-[4-[[2-(2-methyl-1H-indol-3-yl)ethylamino]methyl]phenyl]prop-2-enamide], the MTD in [1] (every other day) is listed as 20 mg every other day.

With `CCCCc1nc2cc(/C=C/C(=O)NO)ccc2n1CCN(CC)CC` [SB939, (2E)-3-{2-butyl-1-[2-(diethylamino)ethyl]-1H-benzimidazol-5-yl}-N-hydroxyacrylamide], in data set [1] (once daily), the MTD is 60 mg once daily.

With `O=C(CCCCCCC(=O)Nc1ccccc1)NO` [Vorinostat, N-hydroxy-N′-phenyl-octanediamide], the MTD in data set [1] (once daily) is 400 mg once daily.

As to `CCCC(CCC)C(=O)O` [valproic acid, 2-propylpentanoic acid], the “reduction of risk for recurrent atherothrombotic event” value in [3] (in addition to conventional therapy) is reported as “approximately 30%”. In data set [3] (approximately 7% estimated without treatment), the “annual absolute event rate” value was “approximately 5%”. In [4], the “increase in PAI-1 production” value is reported as 30%. Moreover, the “effects on plasma PAI-1” value in the data set on PAI-1 [5] and in the data set on PAI-1 [8] was “did not detect any effects” throughout. The “reduction in circulating plasma PAI-1 levels” value with PAI-1 [6] is reported as 45%; with PAI-1 [6] (listed as VPA), “about 45%”; in the data set on PAI-1 [7] (10 healthy men aged 50-70, valproic acid 500 mg (Ergenyl Retard) twice daily for 14 days, mid-morning vs before treatment, p<0.05), “more than 50%”. The “circulating plasma PAI-1 level after treatment” value is 11 ng/mL in the data set on PAI-1 [6] (patients with history of myocardial infarction, valproic acid 500 mg twice daily for 28 days, 19.6 ng/ml before treatment) and 10.8 ng/mL with PAI-1 [7] (healthy men, valproic acid 500 mg twice daily for 14 days, mid-morning, 22.2 ng/ml before treatment). In the data set with PAI-1 [9] (400 mg valproic acid enteric-coated tablet with delayed absorption, oral once daily at 11 pm for 2 weeks), the “time of peak plasma concentration of valproic acid” value was “between 3 am and 6 am”. Also, the “lowering of plasma PAI-1 levels after the treatment” value in the data set with PAI-1 [9] (400 mg valproic acid oral once daily at 11 pm for 2 weeks) is on record as “approximately 30%”.
